Measurements as given in PubChem BioAssay (NCI).
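Values below derive from 48-hour exposures of cells grown in 96-well plates, with endpoints linearly interpolated between the two concentrations bracketing the appropriate inhibition level. TGI denotes the concentration required for complete inhibition of growth.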

tested on: MOLT-4 leukemia; test: NCI tumour cell line growth inhibition, 48 h

Compared with `CC(C)c1cc2c(c(O)c1O)[C@@]1(C(=O)O)CCCC(C)(C)[C@@H]1CC2`, `Cc1c(O)nc(-n2[nH]c3c(c2=O)CCCC3)[nH]c1=O` is higher in TGI: 37.2 µM for the first, > 100 µM for the second.

`CCCNc1ncnc2c1ncn2C` and `CC(C)(C)[Si](C)(C)OCC1OC(n2ccc(=O)[nH]c2=O)C(O[Si](C)(C)C(C)(C)C)/C1=C/C#N` (configuration not stated) cannot be ordered by TGI: > 100 µM for the first, > 21.1 µM for the second.

`CCOS(C)(=O)=O` and `Nc1ccc(N=Nc2c(S(=O)(=O)O)cc3ccccc3c2S(=O)(=O)O)cc1` cannot be ordered by TGI: > 100 µM for the first, > 100 µM for the second.

First: CC(NC(=O)Cc1ccccc1)NC(=O)C(C)C(=O)Nc1ccccc1 (configuration not stated)
Second: C=C1CC(C#N)(C#N)[C@H]2C3CCCC3C[C@@H]12 (some centres not stated) (tested in a mixture with another compound)
The TGI of the first is higher: > 100 µM for the first, 43.5 µM for the second.

tested on: HCT-116 colon; test: NCI tumour cell line growth inhibition, 48 h

Going from `CC1=CCC([C@@](C)(O)CCCC(C)(C)N=C=S)CC1` (some centres not stated) to `CC(C)c1cc2c(c(O)c1O)[C@@]1(C(=O)O)CCCC(C)(C)[C@@H]1CC2`, the TGI rises from 26.6 µM to > 100 µM.

`N[C@@H](Cc1ccccc1)C(=O)N1CCC[C@@H]1P(=O)(Oc1ccccc1)Oc1ccccc1` and `COc1cc2c(cc1OC)C(C(c1ccccc1)c1ccccc1)N(C)CC2` (configuration not stated) cannot be ordered by TGI: > 100 µM for the first, > 100 µM for the second.

Going from `Cc1ccc(/C=N\NC2c3cc(Cl)ccc3Nc3nc(=O)[nH]c(C)c32)cc1` (configuration not stated) to `CCOc1cc(/C=C2/C(C)=NN(c3cccc(Cl)c3)/C2=N/c2nc3ccccc3s2)ccc1O`, the TGI falls from > 100 µM to 67.5 µM.

`O=c1[nH][nH]c(=O)n1CCCCCCn1c(=O)[nH][nH]c1=O` and `O=C1c2ccccc2C(=O)N1n1c(Cc2ccc([N+](=O)[O-])cc2)n[nH]c1=O` cannot be ordered by TGI: > 100 µM for the first, > 100 µM for the second.

Compared with `COc1ccc(-c2nc(SCC(=O)NNC(=S)Nc3ccccc3)[nH]c2-c2ccc(OC)cc2)cc1`, `CC(=NNC(=S)Nc1ccccc1)c1cccc(C(C)=NNC(=S)Nc2ccccc2)n1` is higher in TGI: 78 µM for the first, > 100 µM for the second.

`CCCCCC#CCOC(=O)C(=[N+]=[N-])P(=O)(c1ccccc1)c1ccccc1` and `CC(NC(=O)Cc1ccccc1)NC(=O)C(C)C(=O)Nc1ccccc1` (configuration not stated) cannot be ordered by TGI: > 10 µM for the first, > 100 µM for the second.

`COc1cc(OC)cc(C(=O)CC(=O)c2cc(OC)cc(OC)c2)c1` and `COC(=O)C(Cc1ccc2c(c1)CCC2)Cc1ccc2c(c1)CCC2` cannot be ordered by TGI: > 100 µM for the first, > 100 µM for the second.

`O=C1OC(C2Cc3ccc4ccccc4c3C2=O)c2ccccc21` (configuration not stated) and `C[N+](C)([O-])CCOc1cc2c(c3ccccc13)-c1ccccc1C2=O` cannot be ordered by TGI: > 100 µM for the first, > 68 µM for the second.

`O=C(O)[C@H]1CCCN1CP(=O)(O)CN1CCC[C@@H]1C(=O)O` and `CC(O)CNC(=O)C(C)Oc1ccc(OCC2CCCCC2)cc1` (configuration not stated) cannot be ordered by TGI: > 100 µM for the first, > 100 µM for the second.

`COc1ccc(C2OC(c3ccncc3)=NN2C)cc1F` (configuration not stated) and `CSC1=N/C(=C\c2ccc(C)cc2)C(=O)N1CN1CCCCC1` cannot be ordered by TGI: > 100 µM for the first, > 100 µM for the second.

`CCOC(=O)C1S/C(=N\C(=N)N[N+](=O)[O-])N=C1C` (configuration not stated) and `C=C(C(=O)OCC)C(=O)OCC` cannot be ordered by TGI: > 100 µM for the first, > 100 µM for the second.

`C/C(C[n+]1ccccc1)=N\N=C(N)N` and `O=P(O)(O)C(N=C(Nc1ccccc1)Nc1ccccc1)P(=O)(O)O` cannot be ordered by TGI: > 100 µM for the first, > 100 µM for the second.

`O=[N+]([O-])C(=C(Nc1cccc2cccnc12)Nc1cccc2cccnc12)C(Cl)=C(Cl)Cl` and `Nc1ccc(N=Nc2c(S(=O)(=O)O)cc3ccccc3c2S(=O)(=O)O)cc1` cannot be ordered by TGI: > 100 µM for the first, > 100 µM for the second.

`Cc1nc(C)c(C(=O)NNC(=O)C[N+](C)(C)C)cc1C(=O)NNC(=O)C[N+](C)(C)C` and `CC(C)(C)[Si](C)(C)OCC1OC(n2ccc(=O)[nH]c2=O)C(O[Si](C)(C)C(C)(C)C)/C1=C/C#N` (configuration not stated) cannot be ordered by TGI: > 100 µM for the first, > 53.2 µM for the second.

`S=C1NC2=C(CSC/C2=C\c2cccc(Br)c2)C(c2cccc(Br)c2)N1` (configuration not stated) and `Cc1c(/C=N\NC(=S)NCCNC(=S)N/N=C\c2c(C)n(C)n(-c3ccccc3)c2=O)c(=O)n(-c2ccccc2)n1C` cannot be ordered by TGI: > 100 µM for the first, > 100 µM for the second.

`CCCCCCCCCCCCCCCCNc1cccc2ccccc12` and `CCCNc1ncnc2c1ncn2C` cannot be ordered by TGI: > 100 µM for the first, > 100 µM for the second.

`O=C1OCC/C1=N/O` and `Cc1c(O)nc(-n2[nH]c3c(c2=O)CCCC3)[nH]c1=O` cannot be ordered by TGI: > 100 µM for the first, > 100 µM for the second.

Going from `CCOS(C)(=O)=O` to `C=C1CC(C#N)(C#N)[C@H]2C3CCCC3C[C@@H]12` (some centres not stated) (tested in a mixture with another compound), the TGI falls from > 100 µM to 19.4 µM.

tested on: SK-MEL-28 melanoma; test: NCI tumour cell line growth inhibition, 48 h

`CC1=CCC([C@@](C)(O)CCCC(C)(C)N=C=S)CC1` (some centres not stated) and `CC(C)c1cc2c(c(O)c1O)[C@@]1(C(=O)O)CCCC(C)(C)[C@@H]1CC2` are within 1.5-fold of each other in TGI: 30.2 µM for the first, 29.8 µM for the second.

`N[C@@H](Cc1ccccc1)C(=O)N1CCC[C@@H]1P(=O)(Oc1ccccc1)Oc1ccccc1` and `COc1cc2c(cc1OC)C(C(c1ccccc1)c1ccccc1)N(C)CC2` (configuration not stated) cannot be ordered by TGI: > 100 µM for the first, > 100 µM for the second.

`Cc1ccc(/C=N\NC2c3cc(Cl)ccc3Nc3nc(=O)[nH]c(C)c32)cc1` (configuration not stated) and `CCOc1cc(/C=C2/C(C)=NN(c3cccc(Cl)c3)/C2=N/c2nc3ccccc3s2)ccc1O` cannot be ordered by TGI: > 100 µM for the first, > 100 µM for the second.

`O=c1[nH][nH]c(=O)n1CCCCCCn1c(=O)[nH][nH]c1=O` and `O=C1c2ccccc2C(=O)N1n1c(Cc2ccc([N+](=O)[O-])cc2)n[nH]c1=O` cannot be ordered by TGI: > 100 µM for the first, > 100 µM for the second.

Compared with `COc1ccc(-c2nc(SCC(=O)NNC(=S)Nc3ccccc3)[nH]c2-c2ccc(OC)cc2)cc1`, `CC(=NNC(=S)Nc1ccccc1)c1cccc(C(C)=NNC(=S)Nc2ccccc2)n1` is higher in TGI: 66.8 µM for the first, > 100 µM for the second.

`CCCCCC#CCOC(=O)C(=[N+]=[N-])P(=O)(c1ccccc1)c1ccccc1` and `O=C1OC(C2Cc3ccc4ccccc4c3C2=O)c2ccccc21` (configuration not stated) cannot be ordered by TGI: > 10 µM for the first, > 100 µM for the second.

`COc1cc(OC)cc(C(=O)CC(=O)c2cc(OC)cc(OC)c2)c1` and `COC(=O)C(Cc1ccc2c(c1)CCC2)Cc1ccc2c(c1)CCC2` cannot be ordered by TGI: > 100 µM for the first, > 100 µM for the second.

`O=C(O)[C@H]1CCCN1CP(=O)(O)CN1CCC[C@@H]1C(=O)O` and `CC(O)CNC(=O)C(C)Oc1ccc(OCC2CCCCC2)cc1` (configuration not stated) cannot be ordered by TGI: > 100 µM for the first, > 100 µM for the second.

Going from `COc1ccc(C2OC(c3ccncc3)=NN2C)cc1F` (configuration not stated) to `C[N+](C)([O-])CCOc1cc2c(c3ccccc13)-c1ccccc1C2=O`, the TGI falls from > 100 µM to 39.1 µM.

`CCOC(=O)C1S/C(=N\C(=N)N[N+](=O)[O-])N=C1C` (configuration not stated) and `C=C(C(=O)OCC)C(=O)OCC` cannot be ordered by TGI: > 100 µM for the first, > 100 µM for the second.

`C/C(C[n+]1ccccc1)=N\N=C(N)N` and `Nc1ccc(N=Nc2c(S(=O)(=O)O)cc3ccccc3c2S(=O)(=O)O)cc1` cannot be ordered by TGI: > 100 µM for the first, > 100 µM for the second.

`O=[N+]([O-])C(=C(Nc1cccc2cccnc12)Nc1cccc2cccnc12)C(Cl)=C(Cl)Cl` and `CCCCCCCCCCCCCCCCNc1cccc2ccccc12` cannot be ordered by TGI: > 100 µM for the first, > 100 µM for the second.

`Cc1nc(C)c(C(=O)NNC(=O)C[N+](C)(C)C)cc1C(=O)NNC(=O)C[N+](C)(C)C` and `CC(C)(C)[Si](C)(C)OCC1OC(n2ccc(=O)[nH]c2=O)C(O[Si](C)(C)C(C)(C)C)/C1=C/C#N` (configuration not stated) cannot be ordered by TGI: > 100 µM for the first, > 71.5 µM for the second.

`S=C1NC2=C(CSC/C2=C\c2cccc(Br)c2)C(c2cccc(Br)c2)N1` (configuration not stated) and `CSC1=N/C(=C\c2ccc(C)cc2)C(=O)N1CN1CCCCC1` cannot be ordered by TGI: > 100 µM for the first, > 100 µM for the second.

`O=C1OCC/C1=N/O` and `Cc1c(O)nc(-n2[nH]c3c(c2=O)CCCC3)[nH]c1=O` cannot be ordered by TGI: > 100 µM for the first, > 100 µM for the second.

`CCCNc1ncnc2c1ncn2C` and `CCOS(C)(=O)=O` cannot be ordered by TGI: > 100 µM for the first, > 100 µM for the second.

Work on `C=C1CC(C#N)(C#N)[C@H]2C3CCCC3C[C@@H]12` (some centres not stated) (tested in a mixture with another compound) yielded a TGI of 42.4 µM.
